# Biological target: hSTING(R232) (Homo sapiens, UniProt Q86WV6, H232R)
# Experiment: Luciferase reporter assay in HEK293T-hSTING-Luciferase cells, R232 (wild type) human STING
# Assay type: cell-based
# Details: 20 hr stimulation, read-out: R232 human activity (EC50 range)
# Procedure, shortened: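 Clonal HEK293T cells stably expressing STING from a pUNO-1 plasmid plus an ISRE/ISG54-driven secreted luciferase reporter; 5×10^5 cells stimulated with compound for 20 hr. Supernatant luciferase read by luminescence, giving fold-induction over baseline and EC50.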
# Sequence of hSTING(R232) (Q86WV6 whole entry H232R): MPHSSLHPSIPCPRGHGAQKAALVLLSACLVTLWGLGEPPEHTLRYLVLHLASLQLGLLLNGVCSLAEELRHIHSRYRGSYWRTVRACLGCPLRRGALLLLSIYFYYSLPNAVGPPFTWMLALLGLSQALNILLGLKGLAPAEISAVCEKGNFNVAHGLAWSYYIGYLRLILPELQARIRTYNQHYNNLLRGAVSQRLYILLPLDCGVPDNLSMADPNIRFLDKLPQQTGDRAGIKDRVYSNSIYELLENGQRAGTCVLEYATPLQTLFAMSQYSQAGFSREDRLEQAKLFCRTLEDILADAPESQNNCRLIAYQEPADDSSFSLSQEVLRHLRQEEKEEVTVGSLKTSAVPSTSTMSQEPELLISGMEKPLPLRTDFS
row,SMILES,EC50
1,"Cc1cc(CN2C(=O)N(C)C(C)c3ccc(C(=O)NCc4c(F)cc(F)cc4F)cc32)on1 (centres unmarked) [Example 199, 3,4-dimethyl-1-((3-methylisoxazol-5-yl)methyl)-2-oxo-N-(2,4,6-triflurobenzyl)-1,2,3,4-tetrahydroquinazoline-7-carboxamide]",> 10000 nM
2,"Cc1cc(CN2C(=O)N(C)C(C)c3ccc(C(=O)NCc4c(F)cc(F)cc4F)cc32)no1 (centres unmarked) [Example 200, 3,4-dimethyl-1-((5-methylisoxazol-3-yl)methyl)-2-oxo-N-(2,4,6-trifluorobenzyl)-1,2,3,4-tetrahydroquinazoline-7-carboxamide]",> 10000 nM
3,"CC1c2ccc(C(=O)NCc3c(F)cc(F)cc3F)cc2N(Cc2ccccc2F)C(=O)N1C (centres unmarked) [Example 201, 1-(2-fluorobenzyl)-3,4-dimethyl-2-oxo-N-(2,4,6-trifluorobenzyl)-1,2,3,4-tetrahydroquinazoline-7-carboxamide]",< 1000 nM
4,"CC1c2ccc(C(=O)NCc3c(F)cc(F)cc3F)cc2N(Cc2c(F)cccc2F)C(=O)N1C (centres unmarked) [Example 205, 1-(2,6-difluorobenzyl)-3,4-dimethyl-2-oxo-N-(2,4,6-trifluorobenzyl)-1,2,3,4-tetrahydroquinazoline-7-carboxamide]",< 1000 nM
5,"Cc1cc(CN2C(=O)N(C)C(C)c3ccc(C(=O)NCc4c(F)cc(F)cc4F)cc32)ccn1 (centres unmarked) [Example 207, 3,4-dimethyl-1-((2-methylpyridin-4-yl)methyl)-2-oxo-N-(2,4,6-trifluorobenzyl)-1,2,3,4-tetrahydroquinazoline-7-carboxamide]",1000 to 10000 nM
6,"CC1c2ccc(C(=O)NCc3c(F)cc(F)cc3F)cc2N(Cc2c(F)cc(F)cc2OC(F)(F)F)C(=O)N1C (centres unmarked) [Example 210, 1-(2,4-difluoro-6-(trifluoromethoxy)benzyl)-3,4-dimethyl-2-oxo-N-(2,4,6-trifluorobenzyl)-1,2,3,4-tetrahydroquinazoline-7-carboxamide]",< 1000 nM
7,"CC1c2ccc(C(=O)NCc3c(F)cc(F)cc3F)cc2N(Cc2ccncc2F)C(=O)N1C (centres unmarked) [Example 211, 1-((3-fluoropyridin-4-yl)methyl)-3,4-dimethyl-2-oxo-N-(2,4,6-trifluorobenzyl)-1,2,3,4-tetrahydroquinazoline-7-carboxamide]",< 1000 nM
8,"CC1c2ccc(C(=O)NCc3ccccc3)cc2N(Cc2ccccc2)C(=O)N1C (centres unmarked) [Example 214, N,1-dibenzyl-3,4-dimethyl-2-oxo-1,2,3,4-tetrahydroquinazoline-7-carboxamide]",1000 to 10000 nM
9,"Cc1cccc(C)c1CN1C(=O)N(C)C(C)c2ccc(C(=O)NCc3c(F)cc(F)cc3F)cc21 (centres unmarked) [Example 215, 1-(2,6-dimethylbenzyl)-3,4-dimethyl-2-oxo-N-(2,4,6-trifluorobenzyl)-1,2,3,4-tetrahydroquinazoline-7-carboxamide]",< 1000 nM
10,"CC1c2ccc(C(=O)NCc3c(F)cc(F)cc3F)cc2N(Cc2c(F)cccc2OC(F)F)C(=O)N1C (centres unmarked) [Example 216, 1-(2-(difluoromethoxy)-6-fluorobenzyl)-3,4-dimethyl-2-oxo-N-(2,4,6-trifluorobenzyl)-1,2,3,4-tetrahydroquinazoline-7-carboxamide]",< 1000 nM
11,"COc1ccc(CN2C(=O)N(C)C(C)c3ccc(C(=O)NCc4c(F)cc(F)cc4F)cc32)c(F)c1 (centres unmarked) [Example 217, 1-(2-fluoro-4-methoxybenzyl)-3,4-dimethyl-2-oxo-N-(2,4,6-trifluorobenzyl)-1,2,3,4-tetrahydroquinazoline-7-carboxamide]",< 1000 nM
12,"CC1c2ccc(C(=O)NCc3c(F)cc(F)cc3F)cc2N(Cc2ccc(F)cc2)C(=O)N1C (centres unmarked) [Example 218, 1-(4-fluorobenzyl)-3,4-dimethyl-2-oxo-N-(2,4,6-trifluorobenzyl)-1,2,3,4-tetrahydroquinazoline-7-carboxamide]",< 1000 nM
13,"CC1c2ccc(C(=O)NCc3c(F)cc(F)cc3F)cc2N(Cc2ccc(Cl)cc2F)C(=O)N1C (centres unmarked) [Example 219, 1-(4-chloro-2-fluorobenzyl)-3,4-dimethyl-2-oxo-N-(2,4,6-trifluorobenzyl)-1,2,3,4-tetrahydroquinazoline-7-carboxamide]",< 1000 nM
14,"Cc1ccc(F)c(CN2C(=O)N(C)C(C)c3ccc(C(=O)NCc4c(F)cc(F)cc4F)cc32)c1Br (centres unmarked) [Example 220, 1-(2-bromo-6-fluoro-3-methylbenzyl)-3,4-dimethyl-2-oxo-N-(2,4,6-trifluorobenzyl)-1,2,3,4-tetrahydroquinazoline-7-carboxamide]",< 1000 nM
15,"CC1c2ccc(C(=O)NCc3c(F)cc(F)cc3F)cc2N(Cc2ccc(F)cc2Cl)C(=O)N1C (centres unmarked) [Example 221, 1-(2-chloro-4-fluorobenzyl)-3,4-dimethyl-2-oxo-N-(2,4,6-trifluorobenzyl)-1,2,3,4-tetrahydroquinazoline-7-carboxamide]",< 1000 nM
16,"CC1c2ccc(C(=O)NCc3c(F)cc(F)cc3F)cc2N(Cc2c(F)cc(Cl)cc2F)C(=O)N1C (centres unmarked) [Example 222, 1-(4-chloro-2,6-difluorobenzyl)-3,4-dimethyl-2-oxo-N-(2,4,6-trifluorobenzyl)-1,2,3,4-tetrahydroquinazoline-7-carboxamide]",< 1000 nM
17,"Cc1cc(CN2C(=O)N(C)C(C)c3ccc(C(=O)NCc4cc5cc(F)ccc5o4)cc32)n(C)n1 (centres unmarked) [Example 223, 1-((1,3-dimethyl-1H-pyrazol-5-yl)methyl)-N-((5-fluorobenzofuran-2-yl)methyl)-3,4-dimethyl-2-oxo-1,2,3,4-tetrahydroquinazoline-7-carboxamide]",1000 to 10000 nM
18,"Cc1nn(C)c(CN2C(=O)N(C)C(C)c3ccc(C(=O)NCc4cc5cc(F)ccc5o4)cc32)c1F (centres unmarked) [Example 224, 1-((4-fluoro-1,3-dimethyl-1H-pyrazol-5-yl)methyl)-N-((5-fluorobenzofuran-2-yl)methyl)-3,4-dimethyl-2-oxo-1,2,3,4-tetrahydroquinazoline-7-carboxamide]",< 1000 nM
19,"CC1c2ccc(C(=O)NCc3c(F)cc(F)cc3F)cc2N(Cc2c(F)cccc2NS(C)(=O)=O)C(=O)N1C (centres unmarked) [Example 225, 1-(2-fluoro-6-(methylsulfonamido)benzyl)-3,4-dimethyl-2-oxo-N-(2,4,6-trifluorobenzyl)-1,2,3,4-tetrahydroquinazoline-7-carboxamide]",1000 to 10000 nM
20,"CC(=O)Nc1cccc(F)c1CN1C(=O)N(C)C(C)c2ccc(C(=O)NCc3c(F)cc(F)cc3F)cc21 (centres unmarked) [Example 226, 1-(2-acetamido-6-fluorobenzyl)-3,4-dimethyl-2-oxo-N-(2,4,6-trifluorobenzyl)-1,2,3,4-tetrahydroquinazoline-7-carboxamide]",1000 to 10000 nM
21,"CC1c2ccc(C(=O)NCc3c(F)cc(F)cc3F)cc2N(Cc2ccc(OCC(=O)O)cc2F)C(=O)N1C (centres unmarked) [Example 228, 2-(4-((3,4-dimethyl-2-oxo-7-((2,4,6-trifluorobenzyl)carbamoyl)-3,4-dihydroquinazolin-1(2H)-yl)methyl)-3-fluorophenoxy)acetic acid]",> 10000 nM
22,"CC1c2ccc(C(=O)NCc3c(F)cc(F)cc3F)cc2N(Cc2cc(OCC(=O)O)ccc2F)C(=O)N1C (centres unmarked) [Example 229, 2-(3-((3,4-dimethyl-2-oxo-7-((2,4,6-trifluorobenzyl)carbamoyl)-3,4-dihydroquinazolin-1(2H)-yl)methyl)-4-fluorophenoxy)acetic acid]",> 10000 nM
23,"CC1c2ccc(C(=O)NCc3c(F)cc(F)cc3F)cc2N(Cc2ccc(OCCO)cc2F)C(=O)N1C (centres unmarked) [Example 230, 1-(2-fluoro-4-(2-hydroxyethoxy)benzyl)-3,4-dimethyl-2-oxo-N-(2,4,6-trifluorobenzyl)-1,2,3,4-tetrahydroquinazoline-7-carboxamide]",< 1000 nM
